The source of these data is PubChem BioAssay AID1259407 (Chemical Carcinogenesis Research Information System (CCRIS), 2018).

Active and inactive are the calls of the source. How the calls were made is not given here.

In the data set the test system is CCRIS mutagenicity, Ames/micronucleus/aberration tests. The data set can be described thus: CCRIS mutagenicity studies.

For the compound `[O]=[Mo](=[O])=[O]`, the mutagenic call was “inactive; negative” (Test System: AMES SALMONELLA TYPHIMURIUM, Strain/Indicator: TA97, Metabolic Activation: HAMSTER, LIVER, S-9, AROCLOR 1254 (10%), Method: PREINCUBATION); “inactive; negative” (Test System: AMES SALMONELLA TYPHIMURIUM, Strain/Indicator: TA97, Metabolic Activation: HAMSTER, LIVER, S-9, AROCLOR 1254 (30%), Method: PREINCUBATION); “inactive; negative” (Test System: AMES SALMONELLA TYPHIMURIUM, Strain/Indicator: TA97, Metabolic Activation: NONE, Method: PREINCUBATION); “inactive; negative” (Test System: AMES SALMONELLA TYPHIMURIUM, Strain/Indicator: TA97, Metabolic Activation: RAT, LIVER, S-9, AROCLOR 1254 (10%), Method: PREINCUBATION); “inactive; negative” (Test System: AMES SALMONELLA TYPHIMURIUM, Strain/Indicator: TA97, Metabolic Activation: RAT, LIVER, S-9, AROCLOR 1254 (30%), Method: PREINCUBATION); “inactive; negative” (Test System: AMES SALMONELLA TYPHIMURIUM, Strain/Indicator: TA98, Metabolic Activation: HAMSTER, LIVER, S-9, AROCLOR 1254 (10 OR 30%), Method: PREINCUBATION). Moreover, the mutagenic call is “inactive; negative” (Test System: AMES SALMONELLA TYPHIMURIUM, Strain/Indicator: TA98, Metabolic Activation: NONE, Method: PREINCUBATION); “inactive; negative” (Test System: AMES SALMONELLA TYPHIMURIUM, Strain/Indicator: TA98, Metabolic Activation: RAT, LIVER, S-9, AROCLOR 1254 (10 OR 30%), Method: PREINCUBATION); “inactive; negative” (Test System: AMES SALMONELLA TYPHIMURIUM, Strain/Indicator: TA100, Metabolic Activation: HAMSTER, LIVER, S-9, AROCLOR 1254 (10% OR 30%), Method: PREINCUBATION); “inactive; negative” (Test System: AMES SALMONELLA TYPHIMURIUM, Strain/Indicator: TA100, Metabolic Activation: NONE, Method: PREINCUBATION); “inactive; negative” (Test System: AMES SALMONELLA TYPHIMURIUM, Strain/Indicator: TA100, Metabolic Activation: RAT, LIVER, S-9, AROCLOR 1254 (10% OR 30%), Method: PREINCUBATION); “inactive; negative” (Test System: AMES SALMONELLA TYPHIMURIUM, Strain/Indicator: TA1535, Metabolic Activation: HAMSTER, LIVER, S-9, AROCLOR 1254 (10%), Method: PREINCUBATION). Besides, the mutagenic call reads like this: (Test System: AMES SALMONELLA TYPHIMURIUM, Strain/Indicator: TA1535, Metabolic Activation: HAMSTER, LIVER, S-9, AROCLOR 1254 (30%), Method: PREINCUBATION) “inactive; negative”; (Test System: AMES SALMONELLA TYPHIMURIUM, Strain/Indicator: TA1535, Metabolic Activation: NONE, Method: PREINCUBATION) “inactive; negative”; (Test System: AMES SALMONELLA TYPHIMURIUM, Strain/Indicator: TA1535, Metabolic Activation: RAT, LIVER, S-9, AROCLOR 1254 (10%), Method: PREINCUBATION) “inactive; negative”; (Test System: AMES SALMONELLA TYPHIMURIUM, Strain/Indicator: TA1535, Metabolic Activation: RAT, LIVER, S-9, AROCLOR 1254 (30%), Method: PREINCUBATION) “inactive; negative”; (Test System: AMES SALMONELLA TYPHIMURIUM, Strain/Indicator: TA1537, Metabolic Activation: HAMSTER, LIVER, S-9, AROCLOR 1254 (30%), Method: PREINCUBATION) “inactive; negative”; (Test System: AMES SALMONELLA TYPHIMURIUM, Strain/Indicator: TA1537, Metabolic Activation: NONE, Method: PREINCUBATION) “inactive; negative”. Besides, the mutagenic call (Test System: AMES SALMONELLA TYPHIMURIUM, Strain/Indicator: TA1537, Metabolic Activation: RAT, LIVER, S-9, AROCLOR 1254 (30%), Method: PREINCUBATION) is “inactive; negative”; the mutagenic call (Test System: MOUSE LYMPHOMA, Strain/Indicator: L5178Y (TK+/TK-), Metabolic Activation: RAT, LIVER, S-9, AROCLOR 1254, Method: SUSPENSION/PLATE) is “active; positive. reevaluation of results: positive”; the mutagenic call (Test System: Mouse lymphoma, Strain/Indicator: L5178Y (tk+/tk-), Metabolic Activation: None, Method: Suspension/plate) was “inactive; inconclusive (previous evaluation negative)”.

As to `O=c1[nH]c2ccccc2n1C1CCN(CCCC(c2ccc(F)cc2)c2ccc(F)cc2)CC1`, the mutagenic call is “inactive; negative” (Test System: AMES SALMONELLA TYPHIMURIUM, Strain/Indicator: TA98, Metabolic Activation: NONE, Method: STANDARD PLATE); “inactive; negative” (Test System: AMES SALMONELLA TYPHIMURIUM, Strain/Indicator: TA98, Metabolic Activation: RAT, LIVER, S-9, AROCLOR 1254, Method: STANDARD PLATE); “inactive; negative” (Test System: AMES SALMONELLA TYPHIMURIUM, Strain/Indicator: TA100, Metabolic Activation: NONE, Method: STANDARD PLATE); “inactive; negative” (Test System: AMES SALMONELLA TYPHIMURIUM, Strain/Indicator: TA100, Metabolic Activation: RAT, LIVER, S-9, AROCLOR 1254, Method: STANDARD PLATE); “inactive; negative” (Test System: AMES SALMONELLA TYPHIMURIUM, Strain/Indicator: TA1535, Metabolic Activation: NONE, Method: STANDARD PLATE); “inactive; negative” (Test System: AMES SALMONELLA TYPHIMURIUM, Strain/Indicator: TA1535, Metabolic Activation: RAT, LIVER, S-9, AROCLOR 1254, Method: STANDARD PLATE). Besides, the mutagenic call is “inactive; negative” (Test System: AMES SALMONELLA TYPHIMURIUM, Strain/Indicator: TA1537, Metabolic Activation: NONE, Method: STANDARD PLATE) and “inactive; negative” (Test System: AMES SALMONELLA TYPHIMURIUM, Strain/Indicator: TA1537, Metabolic Activation: RAT, LIVER, S-9, AROCLOR 1254, Method: STANDARD PLATE).

For the compound `C=CC1(C)OC(=O)N(c2cc(Cl)cc(Cl)c2)C1=O` (configuration not stated), the mutagenic call (End Point: IN VITRO MICRONUCLEUS, Test System: HUMAN HEPATOMA CELLS HEPG2, Metabolic Activation: NONE) is “inactive; negative; authors report a slight increase but not statistically significant”.

As for `Cc1c(N)nc([C@H](CC(N)=O)NC[C@H](N)C(N)=O)nc1C(=O)N[C@H](C(=O)N[C@H](C)[C@@H](O)[C@H](C)C(=O)N[C@H](C(=O)NCCc1nc(-c2nc(C(=O)NCCCN(C)CCCN(Cc3ccc(OCc4ccccc4)c(OCc4ccccc4)c3)Cc3ccc(OCc4ccccc4)c(OCc4ccccc4)c3)cs2)cs1)[C@@H](C)O)[C@@H](O[C@@H]1O[C@@H](CO)[C@@H](O)[C@H](O)[C@@H]1O[C@H]1O[C@H](CO)[C@@H](O)[C@H](OC(N)=O)[C@@H]1O)c1cnc[nH]1`, the mutagenic call (Test System: AMES SALMONELLA TYPHIMURIUM, Strain/Indicator: TA94, Metabolic Activation: NONE, Method: PREINCUBATION) was “inactive; negative” and the mutagenic call (Test System: AMES SALMONELLA TYPHIMURIUM, Strain/Indicator: TA102, Metabolic Activation: NONE, Method: PREINCUBATION) was “active; positive”.
